# Test results taken from patent US12098144B2, “Piperazine indazole glucocorticoid receptor antagonists” (Corcept Therapeutics Incorporated, priority 2021, dated 2024).
# Biological target: T1, glucocorticoid receptor (Homo sapiens, UniProt P04150)
# T1 construct: endogenous in cells; ATCC cat
# T1 sequence (P04150 1-777): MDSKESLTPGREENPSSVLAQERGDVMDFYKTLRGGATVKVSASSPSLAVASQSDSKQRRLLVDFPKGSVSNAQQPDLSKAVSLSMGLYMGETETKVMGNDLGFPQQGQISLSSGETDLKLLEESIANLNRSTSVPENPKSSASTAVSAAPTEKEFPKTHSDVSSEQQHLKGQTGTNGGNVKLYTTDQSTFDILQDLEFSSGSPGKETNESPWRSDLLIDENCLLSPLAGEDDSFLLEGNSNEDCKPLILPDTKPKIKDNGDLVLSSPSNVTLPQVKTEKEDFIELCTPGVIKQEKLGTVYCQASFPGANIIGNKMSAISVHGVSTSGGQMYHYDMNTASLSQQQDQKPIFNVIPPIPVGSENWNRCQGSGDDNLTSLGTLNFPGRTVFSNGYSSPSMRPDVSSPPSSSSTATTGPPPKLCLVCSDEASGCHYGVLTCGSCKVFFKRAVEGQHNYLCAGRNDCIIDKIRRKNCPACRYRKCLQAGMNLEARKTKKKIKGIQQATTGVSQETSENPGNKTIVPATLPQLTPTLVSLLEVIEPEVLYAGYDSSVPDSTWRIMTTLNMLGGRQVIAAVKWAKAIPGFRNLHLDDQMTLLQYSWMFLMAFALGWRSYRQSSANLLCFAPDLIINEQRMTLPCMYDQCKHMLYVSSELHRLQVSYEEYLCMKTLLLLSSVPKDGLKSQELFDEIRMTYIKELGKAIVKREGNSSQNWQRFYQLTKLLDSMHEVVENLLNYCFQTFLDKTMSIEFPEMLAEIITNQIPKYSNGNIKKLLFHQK
# Assay: Hep G2 TAT Ki: inhibition of dexamethasone-induced TAT in HepG2 cells (96 well)
# Type: cell-based
# Conditions: challenge of 100 nM dexamethasone, IC50 converted to Ki by Cheng and Prusoff equation
# Method: Glucocorticoid mediated activation of TAT occurs by transactivation of glucocorticoid response elements in the TAT promoter by glucocorticoid receptor-agonist complex.
# HepG2 cells were cultured using MEME media supplemented with 10% (v/v) foetal bovine serum; 2 mM L-glutamine and 1% (v/v) NEAA at 37° C., 5%/95% (v/v) CO2/air.
# Compounds were serially half log diluted in 100% (v/v) dimethylsulphoxide from a 10 mM stock.
# HepG2 cells were then lysed with 30 μl of cell lysis buffer containing a protease inhibitor cocktail for 15 minutes at 4° C. […] After 2 hours incubation at 37° C. the reaction was terminated by the addition of 15 μl of 10M aqueous potassium hydroxide solution, and the plates incubated for a further 30 minutes at 37° C.
# [compound] and fitting the data to a 4 parameter logistic equation.
row,SMILES,Ki
1,"Cc1cc2c(cnn2-c2ccc(F)cc2)cc1C1CN(S(=O)(=O)c2cnn(C)n2)CCN1CC1CCC1 (single isomer, unassigned) [Example 77, 5-(1-(cyclobutylmethyl)-4-((2-methyl-2H-1,2,3-triazol-4-yl)sulfonyl)piperazin-2-yl)-1-(4-fluorophenyl)-6-methyl-1H-indazole]",13 nM
2,"Cc1cc2c(cnn2-c2ccc(F)cc2)cc1[C@@H]1CN(S(=O)(=O)c2cnn(C)n2)CCN1C[C@H]1C[C@@H](O)C1 (racemic) [Example 154, 3-((2-(1-(4-fluorophenyl)-6-methyl-1H-indazol-5-yl)-4-((2-methyl-2H-1,2,3-triazol-4-yl)sulfonyl)piperazin-1-yl)methyl)cyclobutan-1-ol]",24 nM
3,"Cc1cc2c(cnn2-c2ccc(F)cc2)cc1C1CN(S(=O)(=O)c2ccccn2)CCN1CC(C)C (single isomer, unassigned) [Example 115, 1-(4-fluorophenyl)-5-(1-isobutyl-4-(pyridin-2-ylsulfonyl)piperazin-2-yl)-6-methyl-1H-indazole]",24 nM
4,"Cc1cc2c(cnn2-c2ccc(F)cc2)cc1C1CN(S(=O)(=O)c2cnn(C)c2C)CCN1CC(C)C (single isomer, unassigned) [Example 57, 5-(4-((1,5-dimethyl-1H-pyrazol-4-yl)sulfonyl)-1-isobutylpiperazin-2-yl)-1-(4-fluorophenyl)-6-methyl-1H-indazole]",19 nM
5,"Cc1cc2c(cnn2-c2ccc(F)cc2)cc1C1CN(S(=O)(=O)c2nccs2)CCN1CC(C)C (single isomer, unassigned) [Example 109, 2-((3-(1-(4-fluorophenyl)-6-methyl-1H-indazol-5-yl)-4-isobutylpiperazin-1-yl)sulfonyl)thiazole]",12 nM
6,"Cc1cc2c(cnn2-c2ccc(F)cc2)cc1C1CN(S(=O)(=O)c2cnn(C)c2C)CCN1CC(C)C(F)(F)F (single isomer, unassigned) [Example 142, 5-(4-((1,5-dimethyl-1H-pyrazol-4-yl)sulfonyl)-1-(3,3,3-trifluoro-2-methylpropyl)piperazin-2-yl)-1-(4-fluorophenyl)-6-methyl-1H-indazole]",13 nM
7,"Cc1cc2c(cnn2-c2ccc(F)cc2)cc1C1CN(S(=O)(=O)c2ccn(C)n2)CCN1CC(C)C (stereo not drawn) [Example 42, 1-(4-fluorophenyl)-5-(1-isobutyl-4-((1-methyl-1H-pyrazol-3-yl)sulfonyl)piperazin-2-yl)-6-methyl-1H-indazole]",40 nM
8,"Cc1cc2c(cnn2-c2ccc(F)cc2)cc1C1CN(S(=O)(=O)c2ccc(C#N)cc2)CCN1CCC(F)(F)F (single isomer, unassigned) [Example 130, 4-((3-(1-(4-fluorophenyl)-6-methyl-1H-indazol-5-yl)-4-(3,3,3-trifluoropropyl)piperazin-1-yl)sulfonyl)benzonitrile]",7.7 nM
9,"Cc1cc2c(cnn2-c2ccc(F)cc2)cc1C1CN(S(=O)(=O)c2cnn(C)n2)CCN1C(C)C (stereo not drawn) [Example 19, 1-(4-fluorophenyl)-5-(1-isopropyl-4-((2-methyl-2H-1,2,3-triazol-4-yl)sulfonyl)piperazin-2-yl)-6-methyl-1H-indazole]",140 nM
10,"Cc1cc2c(cnn2-c2ccc(F)cc2)cc1C1CN(S(=O)(=O)c2cnn(C)n2)CCN1CC(C)(F)F (single isomer, unassigned) [Example 157, 5-(1-(2,2-difluoropropyl)-4-((2-methyl-2H-1,2,3-triazol-4-yl)sulfonyl)piperazin-2-yl)-1-(4-fluorophenyl)-6-methyl-1H-indazole]",43 nM
11,"Cc1cc2c(cnn2-c2ccc(F)cc2)cc1C1CN(C(=O)C(C)O)CCN1CC(C)C (stereo not drawn) [Example 65, 1-(3-(1-(4-fluorophenyl)-6-methyl-1H-indazol-5-yl)-4-isobutylpiperazin-1-yl)-2-hydroxypropan-1-one]",370 nM
12,"Cc1cc2c(cnn2-c2ccc(F)cc2)cc1C1CN(S(=O)(=O)c2cnn(C)c2)CCN1CC(C)C(F)(F)F (single isomer, unassigned) [Example 141, 1-(4-fluorophenyl)-6-methyl-5-(4-((1-methyl-1H-pyrazol-4-yl)sulfonyl)-1-(3,3,3-trifluoro-2-methylpropyl)piperazin-2-yl)-1H-indazole]",14 nM
13,"Cc1cc2c(cnn2-c2ccc(F)cc2)cc1C1CN(S(=O)(=O)c2cnn(C)n2)CCN1CC1CCCC1 (single isomer, unassigned) [Example 78, 5-(1-(cyclopentylmethyl)-4-((2-methyl-2H-1,2,3-triazol-4-yl)sulfonyl)piperazin-2-yl)-1-(4-fluorophenyl)-6-methyl-1H-indazole]",13 nM
14,"Cc1cc2c(cnn2-c2ccc(F)cc2)cc1C1CN(S(=O)(=O)c2cnn(CC(F)(F)F)n2)CCN1CC(C)C (single isomer, unassigned) [Example 95, 1-(4-fluorophenyl)-5-(1-isobutyl-4-((2-(2,2,2-trifluoroethyl)-2H-1,2,3-triazol-4-yl)sulfonyl)piperazin-2-yl)-6-methyl-1H-indazole]",100 nM
15,"Cc1cc2c(cnn2-c2ccc(F)cc2)cc1C1CN(S(=O)(=O)c2cnn(C)c2)CCN1CC(C)C (single isomer, unassigned) [Example 64, 1-(4-fluorophenyl)-5-(1-isobutyl-4-((1-methyl-1H-pyrazol-4-yl)sulfonyl)piperazin-2-yl)-6-methyl-1H-indazole]",50 nM
16,"Cc1cc2c(cnn2-c2ccc(F)cc2)cc1C1CN(S(=O)(=O)c2cnn(C)n2)CCN1CC(C)(C)O (stereo not drawn) [Example 162, 1-(2-(1-(4-fluorophenyl)-6-methyl-1H-indazol-5-yl)-4-((2-methyl-2H-1,2,3-triazol-4-yl)sulfonyl)piperazin-1-yl)-2-methylpropan-2-ol]",260 nM
17,"Cc1cc2c(cnn2-c2ccc(F)cc2)cc1C1CN(S(=O)(=O)c2ccn(C)n2)CCN1CC(C)C (single isomer, unassigned) [Example 1, 1-(4-fluorophenyl)-5-(1-isobutyl-4-((1-methyl-1H-pyrazol-3-yl)sulfonyl)piperazin-2-yl)-6-methyl-1H-indazole]",35 nM
18,"CC(=O)CN1CCN(S(=O)(=O)c2cnn(C)n2)CC1c1cc2cnn(-c3ccc(F)cc3)c2cc1C (single isomer, unassigned) [Example 125, 1-(2-(1-(4-fluorophenyl)-6-methyl-1H-indazol-5-yl)-4-((2-methyl-2H-1,2,3-triazol-4-yl)sulfonyl)piperazin-1-yl)propan-2-one]",87 nM
19,"Cc1cc2c(cnn2-c2ccc(F)cc2)cc1[C@@H]1CN(S(=O)(=O)c2cnn(C)n2)CCN1CC(C)C(F)(F)F (single isomer, unassigned) [Example 23]",13 nM
20,"Cc1cc2c(cnn2-c2ccc(F)cc2)cc1C1CN(S(=O)(=O)c2cnn(C)n2)CCN1CC(C)(C)C (single isomer, unassigned) [Example 161, 1-(4-fluorophenyl)-6-methyl-5-(4-((2-methyl-2H-1,2,3-triazol-4-yl)sulfonyl)-1-neopentylpiperazin-2-yl)-1H-indazole]",57 nM
21,"Cc1cc2c(cnn2-c2ccc(F)cc2)cc1C1CN(S(=O)(=O)c2cccnc2)CCN1CC(C)C (single isomer, unassigned) [Example 97, 1-(4-fluorophenyl)-5-(1-isobutyl-4-(pyridin-3-ylsulfonyl)piperazin-2-yl)-6-methyl-1H-indazole]",23 nM
22,"CCn1ncc(S(=O)(=O)N2CCN(CC(C)C)C(c3cc4cnn(-c5ccc(F)cc5)c4cc3C)C2)n1 (stereo not drawn) [Example 40, 5-(4-((2-ethyl-2H-1,2,3-triazol-4-yl)sulfonyl)-1-isobutylpiperazin-2-yl)-1-(4-fluorophenyl)-6-methyl-1H-indazole]",53 nM
23,"Cc1cc2c(cnn2-c2ccc(F)cc2)cc1C1CN(S(=O)(=O)c2ccc(C(F)(F)F)nc2)CCN1CC(C)C (single isomer, unassigned) [Example 102, 1-(4-fluorophenyl)-5-(1-isobutyl-4-((6-(trifluoromethyl)pyridin-3-yl)sulfonyl)piperazin-2-yl)-6-methyl-1H-indazole]",39 nM
24,"Cc1nc(S(=O)(=O)N2CCN(CC(C)C)C(c3cc4cnn(-c5ccc(F)cc5)c4cc3C)C2)cs1 (single isomer, unassigned) [Example 99, 4-((3-(1-(4-fluorophenyl)-6-methyl-1H-indazol-5-yl)-4-isobutylpiperazin-1-yl)sulfonyl)-2-methylthiazole]",19 nM
